This is an account of results in ChEMBL document CHEMBL3046907, “Microwave-assisted synthesis of pyrido[1,2-a]benzimidazole derivatives of -aryloxyquinoline and their antimicrobial and antituberculosis activities” (2013).

Holding throughout (assay type): functional
The subject of experiment [1] is Streptococcus pneumoniae. Briefly: Antibacterial activity against Streptococcus pneumoniae MTCC 1936 after overnight incubation by broth microdilution method.
Experiment [2] concerns Clostridium tetani. Briefly: Antibacterial activity against Clostridium tetani MTCC 449 after overnight incubation by broth microdilution method. (Dilution methods test growth across graded concentrations, often in twofold steps.)
For experiment [3], the system named is Vibrio cholerae. Briefly: Antibacterial activity against Vibrio cholerae MTCC 3906 after overnight incubation by broth microdilution method.
Experiment [4] relates to Salmonella typhi. Briefly: Antibacterial activity against Salmonella enterica subsp. enterica serovar Typhi MTCC 98 after overnight incubation by broth microdilution method.
Experiment [5] deals with Escherichia coli. Briefly: Antibacterial activity against Escherichia coli MTCC 443 after overnight incubation by broth microdilution method.
Experiment [6] has as its system Bacillus subtilis. Briefly: Antibacterial activity against Bacillus subtilis MTCC 441 after overnight incubation by broth microdilution method.
The test system of experiment [7] is Aspergillus fumigatus. Briefly: Antifungal activity against Aspergillus fumigatus MTCC 3008 after overnight incubation by broth microdilution method.
The subject of experiment [8] is Mycobacterium tuberculosis. Briefly: Growth inhibition of Mycobacterium tuberculosis H37Rv at 6.25 ug/ml after 28 days by Lowenstein-Jensen method. Conditions: 672 h, read-out: GI.
Experiment [9] deals with Candida albicans. Briefly: Antifungal activity against Candida albicans MTCC 227 after overnight incubation by broth microdilution method.

Converted amounts (≈) assume the structure as drawn.

A word on the MIC99: it is an inhibitory concentration at the 99% level, which refers to growth in some studies and to a panel of isolates in others. Take `CCn1cc(C(=O)O)c(=O)c2cc(F)c(N3CCNCC3)cc21` [NORFLOXACIN]: the MIC99 was 10 µg/mL (≈ 31.3 µM) in [1]; 50 µg/mL (≈ 157 µM) in experiment [2]; 10 µg/mL (≈ 31.3 µM) in experiment [3]; 10 µg/mL (≈ 31.3 µM) in experiment [4]; 10 µg/mL (≈ 31.3 µM) in experiment [5]; 100 µg/mL (≈ 313 µM) in experiment [6].

As to `CC1(C)S[C@@H]2[C@H](NC(=O)[C@H](N)c3ccccc3)C(=O)N2[C@H]1C(=O)O` [AMPICILLIN], the MIC99 in [1] was 100 µg/mL (≈ 286 µM); in [2], 250 µg/mL (≈ 715 µM); in [3], 100 µg/mL (≈ 286 µM); in experiment [4], 100 µg/mL (≈ 286 µM); in experiment [5], 100 µg/mL (≈ 286 µM); in [6] it was 250 µg/mL (≈ 715 µM).

Regarding `Cc1ccc(Oc2nc3ccc(C)cc3cc2-c2c(C#N)c(N)n3c(nc4cc(C)ccc43)c2C#N)cc1`, the MIC99 in experiment [1] is 250 µg/mL (≈ 506 µM); in [2], 125 µg/mL (≈ 253 µM); in [7], 500 µg/mL (≈ 1010 µM); in experiment [3] it was 125 µg/mL (≈ 253 µM); in experiment [4], 250 µg/mL (≈ 506 µM); in experiment [5], 200 µg/mL (≈ 404 µM). The MIC99 in [9] was 500 µg/mL (≈ 1010 µM); in experiment [6] it was 200 µg/mL (≈ 404 µM). The inhibition of growth at 6.25 µg/mL in experiment [8] was 58%.

As to `Cc1ccc2c(c1)nc1c(C#N)c(-c3cc4ccccc4nc3Oc3ccccc3)c(C#N)c(N)n12`, the MIC99 in experiment [1] came out at 250 µg/mL (≈ 536 µM); in experiment [2], 250 µg/mL (≈ 536 µM); in experiment [7], 500 µg/mL (≈ 1070 µM); in experiment [3], 500 µg/mL (≈ 1070 µM); in experiment [4] it was 200 µg/mL (≈ 429 µM); in experiment [5], 100 µg/mL (≈ 214 µM). In addition, the MIC99 in experiment [9] turned out to be 500 µg/mL (≈ 1070 µM); in experiment [6], 200 µg/mL (≈ 429 µM). Further, the inhibition of growth at 6.25 µg/mL in [8] amounted to 49%.

On to `COc1ccc2nc(Oc3ccc(F)cc3)c(-c3c(C#N)c(N)n4c(nc5ccccc54)c3C#N)cc2c1`, for which the MIC99 in experiment [1] was found to be 500 µg/mL (≈ 999 µM); in [2], 200 µg/mL (≈ 400 µM); in [7], 500 µg/mL (≈ 999 µM); in experiment [3], 200 µg/mL (≈ 400 µM); in [4] it was 500 µg/mL (≈ 999 µM); in [5], 200 µg/mL (≈ 400 µM). In addition, the MIC99 was greater than 1000 µg/mL in experiment [9] and 200 µg/mL (≈ 400 µM) in [6]. Besides, the inhibition of growth at 6.25 µg/mL in experiment [8] amounted to 86%.

With `O=C(O)c1cn(C2CC2)c2cc(N3CCNCC3)c(F)cc2c1=O` [CIPROFLOXACIN], the MIC99 in experiment [1] was determined as 50 µg/mL (≈ 151 µM); in [3], 25 µg/mL (≈ 75.4 µM); in experiment [4], 25 µg/mL (≈ 75.4 µM); in experiment [5] it was 25 µg/mL (≈ 75.4 µM); in experiment [6], 50 µg/mL (≈ 151 µM).

On to `Cc1ccc(Oc2nc3ccccc3cc2-c2c(C#N)c(N)n3c(nc4cc(C)ccc43)c2C#N)cc1`, for which the MIC99 was 200 µg/mL (≈ 416 µM) in [1]; 62.5 µg/mL (≈ 130 µM) in experiment [2]; 1000 µg/mL (≈ 2080 µM) in experiment [7]; 200 µg/mL (≈ 416 µM) in [3]; 200 µg/mL (≈ 416 µM) in experiment [4]; 62.5 µg/mL (≈ 130 µM) in experiment [5]. The MIC99 came to 500 µg/mL (≈ 1040 µM) in experiment [9] and 250 µg/mL (≈ 520 µM) in experiment [6]. In addition, the inhibition of growth at 6.25 µg/mL in experiment [8] was 12%.

On to `COc1ccc2nc(Oc3ccccc3)c(-c3c(C#N)c(N)n4c(nc5ccccc54)c3C#N)cc2c1`, for which the MIC99 turned out to be 250 µg/mL (≈ 518 µM) in [1]; 100 µg/mL (≈ 207 µM) in experiment [2]; 1000 µg/mL (≈ 2070 µM) in experiment [7]; 200 µg/mL (≈ 415 µM) in experiment [3]; 200 µg/mL (≈ 415 µM) in experiment [4]; 250 µg/mL (≈ 518 µM) in experiment [5]. The MIC99 in experiment [9] came to 500 µg/mL (≈ 1040 µM); in experiment [6], 250 µg/mL (≈ 518 µM). Also, the inhibition of growth at 6.25 µg/mL in experiment [8] was 46%.

For `COC1=CC(=O)C[C@@H](C)[C@]12Oc1c(Cl)c(OC)cc(OC)c1C2=O` [GRISEOFULVIN], the figures for the MIC99 in experiment [7] and in experiment [9] were 100 µg/mL (≈ 283 µM) and 500 µg/mL (≈ 1420 µM), respectively.

As to `N#Cc1c(-c2cc3ccccc3nc2Oc2ccccc2)c(C#N)c2nc3ccccc3n2c1N`, the MIC99 was 62.5 µg/mL (≈ 138 µM) in experiment [1]; 100 µg/mL (≈ 221 µM) in [2]; 500 µg/mL (≈ 1110 µM) in experiment [7]; 200 µg/mL (≈ 442 µM) in experiment [3]; 250 µg/mL (≈ 553 µM) in experiment [4]; 250 µg/mL (≈ 553 µM) in experiment [5]. In addition, the results for the MIC99 in [9] and in [6] were 1000 µg/mL (≈ 2210 µM) and 100 µg/mL (≈ 221 µM), respectively. In addition, in experiment [8], the inhibition of growth at 6.25 µg/mL turned out to be 80%.

For `COc1ccc2nc(Oc3ccc(C)cc3)c(-c3c(C#N)c(N)n4c(nc5ccccc54)c3C#N)cc2c1`, the MIC99 in experiment [1] is 500 µg/mL (≈ 1010 µM); in experiment [2] it was 125 µg/mL (≈ 252 µM); in experiment [7], greater than 1000 µg/mL; in experiment [3], 250 µg/mL (≈ 503 µM); in experiment [4] it was 250 µg/mL (≈ 503 µM); in experiment [5] it was 125 µg/mL (≈ 252 µM). The MIC99 in experiment [9] is 500 µg/mL (≈ 1010 µM); in [6], 200 µg/mL (≈ 403 µM). In addition, the inhibition of growth at 6.25 µg/mL in [8] was 58%.
